PubChem BioAssay AID192 (DTP/NCI, 2004)
Where “and” joins values, the source holds several entries; their conditions need not be identical. Equal entries are not always repeated. Toxic doses and inconclusive results are not listed. Square brackets hold non-standard residues; d marks the D form. Peptide text beside a SMILES is read from it. * marks the point of attachment. ξ: configuration not given here. Cbz = O=C(OCc1ccccc1)*; ξI = CCC(C)C(N)C(=O)O

Tested on: BDF1 mice, B16 melanoma ip, median survival T/C
Experiment: NCI In Vivo Anticancer Drug Screen. Data for tumor model B16 Melanoma (intraperitoneal) in B6D2F1 (BDF1) mice
Details: endpoint: median survival time, higher = longer survival
Outline: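 Values are ratios of treated (T) to vehicle-control (C) measurements of survival or tumor size in tumor-bearing mice.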

[1] = dose: 50.0 mg/kg/injection, schedule: Q01DX009 (ip), vehicle: Klucel (hydroxypropylcellulose) (HPC)
[2] = dose: 100.0 mg/kg/injection, schedule: Q01DX009 (ip), vehicle: Klucel (hydroxypropylcellulose) (HPC)
[3] = dose: 200.0 mg/kg/injection, schedule: Q01DX009 (ip), vehicle: Klucel (hydroxypropylcellulose) (HPC)
[4] = dose: 0.25 mg/kg/injection, schedule: Q01DX009 (ip), vehicle: saline
[5] = dose: 0.5 mg/kg/injection, schedule: Q01DX009 (ip), vehicle: saline
[6] = dose: 1.0 mg/kg/injection, schedule: Q01DX009 (ip), vehicle: saline
[7] = dose: 2.0 mg/kg/injection, schedule: Q01DX009 (ip), vehicle: saline
[8] = dose: 3.13 mg/kg/injection, schedule: Q01DX009 (ip), vehicle: saline with Tween-80
[9] = dose: 6.25 mg/kg/injection, schedule: Q01DX009 (ip), vehicle: saline with Tween-80
[10] = dose: 12.5 mg/kg/injection, schedule: Q01DX009 (ip), vehicle: saline with Tween-80
[11] = dose: 25.0 mg/kg/injection, schedule: Q01DX009 (ip), vehicle: saline with Tween-80
[12] = dose: 25.0 mg/kg/injection, schedule: Q01DX009 (ip), vehicle: Klucel (hydroxypropylcellulose) (HPC)
[13] = dose: 12.5 mg/kg/injection, schedule: Q01DX009 (ip), vehicle: saline
[14] = dose: 25.0 mg/kg/injection, schedule: Q01DX009 (ip), vehicle: saline
[15] = dose: 50.0 mg/kg/injection, schedule: Q01DX009 (ip), vehicle: saline
[16] = dose: 100.0 mg/kg/injection, schedule: Q01DX009 (ip), vehicle: saline
[17] = dose: 400.0 mg/kg/injection, schedule: Q01DX009 (ip), vehicle: saline
[18] = dose: 6.25 mg/kg/injection, schedule: Q01DX009 (ip), vehicle: saline
[19] = dose: 50.0 mg/kg/injection, schedule: Q01DX009 (ip), vehicle: saline with Tween-80
[20] = dose: 100.0 mg/kg/injection, schedule: Q01DX009 (ip), vehicle: saline with Tween-80
[21] = dose: 200.0 mg/kg/injection, schedule: Q01DX009 (ip), vehicle: saline with Tween-80
[22] = dose: 400.0 mg/kg/injection, schedule: Q01DX009 (ip), vehicle: saline with Tween-80

For `CCCCNC(=O)Nc1ccccc1CC`, the T/C (dose: 100.0 mg/kg/injection, schedule: Q04DX003 (ip), vehicle: Klucel (hydroxypropylcellulose) (HPC)) was 110 % of control, the T/C (dose: 200.0 mg/kg/injection, schedule: Q04DX003 (ip), vehicle: Klucel (hydroxypropylcellulose) (HPC)) was 103 % of control and the T/C (dose: 400.0 mg/kg/injection, schedule: Q04DX003 (ip), vehicle: Klucel (hydroxypropylcellulose) (HPC)) was 96 % of control.
In the case of `CCN(C(=O)c1ccc(C(=O)N(CC)c2ccccc2)cc1)c1ccccc1`, the T/C [1] was 119 % of control, the T/C [2] was 114 % of control and the T/C [3] was 111 % of control.
For `C1CCC2C[N-]CCC2C1.C1CCC2C[N-]CCC2C1.C1CCC2C[N-]CCC2C1.C1CCC2C[N-]CCC2C1.[Cl][Rh][Cl]` (centres undefined), the T/C [4] was 100 % of control, the T/C (dose: 0.5 mg/kg/injection, schedule: Q01DX009 (ip), vehicle: saline with Tween-80) was 104 % of control and the T/C [5] was 104 % of control. For the same compound, the T/C (dose: 1.0 mg/kg/injection, schedule: Q01DX009 (ip), vehicle: saline with Tween-80) was 95 % of control, the T/C [6] was 115 % of control and the T/C (dose: 2.0 mg/kg/injection, schedule: Q01DX009 (ip), vehicle: saline with Tween-80) was 92 % of control. The T/C [7] was 123 % of control, the T/C (dose: 4.0 mg/kg/injection, schedule: Q01DX009 (ip), vehicle: saline with Tween-80) was 86 % of control and the T/C (dose: 4.0 mg/kg/injection, schedule: Q01DX009 (ip), vehicle: saline) was 115 % of control. The T/C (dose: 8.0 mg/kg/injection, schedule: Q01DX009 (ip), vehicle: saline) was 110 % of control.
With `CSc1nc(Cl)c(Br)c(Cl)n1` the T/C (dose: 1.56 mg/kg/injection, schedule: Q01DX009 (ip), vehicle: saline with Tween-80) was 110 % of control, the T/C [8] was 112 % of control and the T/C [9] was 102 % of control. The T/C [10] was 108 % of control.
In the case of `CCC(=O)c1ccccc1N`, the T/C [2] was 97 % of control and the T/C [3] was 98 % of control.
`CN(CCCN(C)CCC1CCCCC1)CCC1CCCCC1` was tested, and the T/C [10] was 92 % of control and the T/C [11] was 95 % of control.
`O=C1CN(CCN2CC(=O)NC(=O)C2)CC(=O)N1` was tested, and the T/C (dose: 15.0 mg/kg/injection, schedule: Q01DX009 (oral), vehicle: saline) was 115 % of control and the T/C (dose: 30.0 mg/kg/injection, schedule: Q01DX009 (oral), vehicle: saline) was 122 % of control.
For `CCOC(=O)C(=CNc1cccc(N)n1)C(=O)OCC`, the T/C [2] was 107 % of control, the T/C [3] was 111 % of control and the T/C (dose: 400.0 mg/kg/injection, schedule: Q01DX009 (ip), vehicle: Klucel (hydroxypropylcellulose) (HPC)) was 94 % of control.
With `COc1cc2c(cc1OC)C13CCN4CC5=CCOC6CC(=O)N2C1C6C5CC43` (centres undefined) (tested in a mixture with another compound) the T/C [12] was 103 % of control and the T/C [1] was 91 % of control.
For `NC(=S)c1ncn(C2OC(CO)C(O)C2O)c1N` (centres undefined), the T/C [13] was 107 % of control, the T/C [14] was 105 % of control and the T/C [15] was 105 % of control. For the same compound, the T/C [16] was 102 % of control, the T/C (dose: 200.0 mg/kg/injection, schedule: Q01DX009 (ip), vehicle: saline) was 103 % of control and the T/C [17] was 95 % of control.
In the case of `O=C1CCCN1`, the T/C [16] was 100 % of control and the T/C [17] was 94 % of control.
In the case of `Cc1cccc(NC(=O)Nc2ccccc2Cl)c1C`, the T/C [12] was 101 % of control, the T/C [1] was 101 % of control and the T/C [2] was 101 % of control.
With `C#CC(O)(/C=C\Cl)CC` (centres undefined) the T/C [18] was 110 % of control, the T/C [13] was 102 % of control and the T/C [14] was 100 % of control. For the same compound, the T/C [15] was 110 % of control and the T/C [16] was 115 % of control.
For `O=[N+]([O-])c1ccc(C=C2C(Cl)=C(Cl)C(Cl)=C2Cl)cc1`, the T/C [8] was 101 % of control, the T/C [9] was 91 % of control and the T/C [10] was 89 % of control.
With `COC(=O)C1C(O)C(C)C(O)C(C)C=C(C)C2=C3C(=C(C)C(=O)c4c(O)c(c(C)c(OC(C)=O)c43)NC(=O)C(C)=C/C=C\C(C)C(O)C(C)C1O)OCO2` (centres undefined) the T/C (dose: 6.25 mg/kg/injection, schedule: Q01DX009 (ip), vehicle: Klucel (hydroxypropylcellulose) (HPC)) was 97 % of control, the T/C (dose: 12.5 mg/kg/injection, schedule: Q01DX009 (ip), vehicle: Klucel (hydroxypropylcellulose) (HPC)) was 94 % of control and the T/C [12] was 88 % of control. For the same compound, the T/C (dose: 25.0 mg/kg/injection, schedule: Q01DX009 (ip), vehicle: carboxymethylcellulose (CMC)) was 112 % of control, the T/C (dose: 50.0 mg/kg/injection, schedule: Q01DX009 (ip), vehicle: carboxymethylcellulose (CMC)) was 112 % of control and the T/C [2] was 89 % of control.
For `COc1cc2c(cc1OC)[C@H]1CNC[C@H]1[C@@H](c1ccccc1)C2`, the T/C [15] was 123 % of control and the T/C [16] was 114 % of control.
For `CCCCCCCCCCCCCCCCCCOC(=O)Cc1ccc(N(CCCl)CCCl)cc1`, the T/C (dose: 180.0 mg/kg/injection, schedule: Q04DX003 (ip), vehicle: saline with Tween-80) was 102 % of control and the T/C (dose: 266.0 mg/kg/injection, schedule: Q04DX003 (ip), vehicle: saline with Tween-80) was 107 % of control.
For `Oc1ccc(Nc2ccnc3cc(Cl)ccc23)cc1CN(CCCl)CCCl`, the T/C (dose: 0.31 mg/kg/injection, schedule: Q01DX009 (ip), vehicle: saline) was 97 % of control, the T/C (dose: 0.63 mg/kg/injection, schedule: Q01DX009 (ip), vehicle: saline) was 105 % of control and the T/C (dose: 1.25 mg/kg/injection, schedule: Q01DX009 (ip), vehicle: saline) was 107 % of control and 113 % of control. The T/C (dose: 2.5 mg/kg/injection, schedule: Q01DX009 (ip), vehicle: saline) was 115 % of control.
For `CCC/C=C/C=C/C1CC(O)C(O)C(=O)C1C=O` (centres undefined), the T/C (dose: 1.6 mg/kg/injection, schedule: Q01DX009 (ip), vehicle: saline with Tween-80) was 105 % of control, the T/C (dose: 3.12 mg/kg/injection, schedule: Q01DX009 (ip), vehicle: saline with Tween-80) was 104 % of control and the T/C [9] was 98 % of control. For the same compound, the T/C [10] was 98 % of control and 100 % of control.
In the case of `CCCCOB=O`, the T/C [19] was 95 % of control, the T/C [20] was 99 % of control and the T/C [21] was 89 % of control.
`CCC(C)C(NC(=O)CNC(=O)CNC(=O)OCc1ccccc1)C(=O)O` (stereo not drawn) (Cbz-Gly-Gly-[ξI]-OH) was tested, and the T/C [19] was 94 % of control, the T/C [20] was 92 % of control and the T/C [21] was 91 % of control. For the same compound, the T/C [22] was 86 % of control.
In the case of `Cc1cn(C2CC3[O][Sn]([c]4ccccc4)([c]4ccccc4)[O]CC3O2)c(=O)[nH]c1=O` (centres undefined), the T/C [18] was 91 % of control, the T/C [13] was 93 % of control and 117 % of control and the T/C [14] was 94 % of control and 124 % of control. The T/C [15] was 98 % of control.
In the case of `O=c1[nH]c(=O)n(C2CC(O)C(CO)O2)cc1I` (centres undefined), the T/C [11] was 106 % of control, the T/C [19] was 118 % of control and the T/C [20] was 123 % of control. The T/C [21] was 116 % of control, the T/C [22] was 120 % of control and the T/C (dose: 800.0 mg/kg/injection, schedule: Q01DX009 (ip), vehicle: saline with Tween-80) was 150 % of control.
With `C[C@]12CC[C@@H]3c4ccc(Oc5nc(N6CC6)nc(N6CC6)n5)cc4CC[C@H]3[C@@H]1CCC2=O` the T/C (dose: 3.13 mg/kg/injection, schedule: Q01DX009 (ip), vehicle: saline) was 104 % of control, the T/C [18] was 113 % of control and the T/C (dose: 6.25 mg/kg/injection, schedule: Q04DX003 (ip), vehicle: saline) was 97 % of control. The T/C [13] was 104 % of control, the T/C (dose: 12.5 mg/kg/injection, schedule: Q04DX003 (ip), vehicle: saline) was 97 % of control and the T/C (dose: 25.0 mg/kg/injection, schedule: Q04DX003 (ip), vehicle: saline) was 102 % of control. The T/C (dose: 50.0 mg/kg/injection, schedule: Q04DX003 (ip), vehicle: saline) was 97 % of control.
In the case of `CO[C@H]1C[C@H](O[C@H]2CC[C@]3(C=O)[C@H]4CC[C@]5(C)[C@@H](C6=CC(=O)OC6)CC[C@]5(O)[C@@H]4CC[C@]3(O)C2)O[C@H](C)[C@H]1O[C@@H]1O[C@H](CO)[C@@H](O)[C@H](O)[C@H]1O`, the T/C [4] was 105 % of control, the T/C (dose: 0.25 mg/kg/injection, schedule: Q04DX003 (ip), vehicle: saline) was 100 % of control and the T/C [5] was 100 % of control. For the same compound, the T/C (dose: 0.5 mg/kg/injection, schedule: Q04DX003 (ip), vehicle: saline) was 102 % of control, the T/C [6] was 100 % of control and the T/C (dose: 1.0 mg/kg/injection, schedule: Q04DX003 (ip), vehicle: saline) was 105 % of control. The T/C [7] was 94 % of control.
